# Tested on: MCF-7 breast cancer
# Assay: Antiproliferative effects, crystal violet staining, MCF-7 cells
# Assay type: cell-based, human
# Conditions: Homo sapiens, MCF7; Table 1; 96 h incubation; 2 - 3 independent experiments; spread in parentheses
# Protocol: (§1) MCF-7 breast cancer and HT-29 human colon carcinoma cells were maintained in 10 % (v/v) fetal calf serum containing cell culture medium (minimum essential eagle supplemented with 2.2 g NaHCO3, 110 mg/L sodium pyruvate and 50 mg/L gentamicin sulfate adjusted to pH 7.4) at 37°C/5 % CO2 and passaged twice a week according to standard procedures. The antiproliferative effects of Rh1a - Rh5a were determined by an established procedure. Cells were suspended in cell culture medium (MCF-7: 10000 cells/mL, HT-29: 2850 cells/mL), and 100 µL aliquots thereof were plated in 96 well plates and incubated at 37°C/5 % CO2 for 72 h (MCF-7) or 48 h (HT-29). Stock solutions of the compounds in DMSO were freshly prepared and diluted with cell culture medium to the desired concentrations (final DMSO concentration: 0.1 % v/v). The medium in the plates was replaced with the medium containing the compounds in graded concentrations (six replicates). After further incubation for 96 h (MCF-7) or 72 h (HT-29) the cell biomass was determined by crystal violet staining and the IC50 values were established as those concentrations causing 50 % inhibition of cell proliferation. Results were calculated from 2 - 3 independent experiments. The results are summarized in Tab. 1 and Fig. 4. Table 1 IC50 values (µM) for the complexes mer-[RhCl3(DMSO)(pp)] Rh1a - Rh5a
# (§2) The antiproliferative effects of the compounds Ir1a - Ir5a were determined as described in Example 2.
row,Compound,IC50
1,"c1ccc2nc3c4cccnc4c4ncccc4c3nc2c1 [dppz, dipyrido[3,2-a:2',3'-c]phenazine, reference compound]",800 nM

# Same assay, conditions: Homo sapiens, MCF7; Table 2; determined as described in Example 2
row,Compound,IC50
1,"c1ccc2nc3c4cccnc4c4ncccc4c3nc2c1 [dppz, dipyrido[3,2-a:2',3'-c]phenazine, reference compound]",800 nM

# Same assay, conditions: Table 1; 96 h incubation; 2 - 3 independent experiments; spread in parentheses
row,Compound,IC50
1,"N.N.[Cl][Pt][Cl] [Cisplatin, reference compound]",2000 nM
2,mer-[RhCl3(DMSO)(bpy)] [Rh1a],4000 nM
3,mer-[RhCl3(DMSO)(dppn)] [Rh5a],51 nM
4,mer-[RhCl3(DMSO)(dppz)]·1.5H2O [Rh4a],95 nM
5,mer-[RhCl3(DMSO)(dpq)] [Rh3a],79 nM
6,mer-[RhCl3(DMSO)(phen)]·H2O [Rh2a],400 nM

# Same assay, conditions: Table 2; determined as described in Example 2
row,Compound,IC50
1,"N.N.[Cl][Pt][Cl] [Cisplatin, reference compound]",2000 nM
2,"CO.C[S+](C)(=O)[Ir-3]1([Cl])([Cl])([Cl])[n+]2cccc3ccc4ccc[n+]1c4c32.O [Ir2a, fac-[IrCl3(DMSO)(phen)]·CH3OH·H2O]",4600 nM
3,"[(η^5-C5Me5)IrCl(dppz)](CF3SO3) [compound 6, reference compound]",2300 nM
4,"[(η^5-C5Me5)Ir{(Me2N)2CS}(dppn)](CF3SO3) [compound 7, reference compound]",170 nM
5,fac-[IrC/3(DMSO)(dppz)]·2H2O [Ir4a],800 nM
6,fac-[IrC/3(DMSO)(dpq)·3H2O [Ir3a],5500 nM
7,fac-[IrCl3(DMSO)(bpy)·2H2O [Ir1a],> 100000 nM
8,fac-[IrCl3(DMSO)(dppn)]·2CH3OH [Ir5a],210 nM

# Tested on: HT-29 human colon carcinoma cells
# Assay: Antiproliferative effects, crystal violet staining, HT-29 cells
# Assay type: cell-based
# Conditions: Homo sapiens, HT-29; Table 1; 72 h incubation; 2 - 3 independent experiments; spread in parentheses
# Protocol: as §1, §2
row,Compound,IC50
1,"c1ccc2nc3c4cccnc4c4ncccc4c3nc2c1 [dppz, dipyrido[3,2-a:2',3'-c]phenazine, reference compound]",1800 nM

# Same assay, conditions: Homo sapiens, HT-29; Table 2; determined as described in Example 2
row,Compound,IC50
1,"c1ccc2nc3c4cccnc4c4ncccc4c3nc2c1 [dppz, dipyrido[3,2-a:2',3'-c]phenazine, reference compound]",1800 nM

# Same assay, conditions: Table 1; 72 h incubation; 2 - 3 independent experiments; spread in parentheses
row,Compound,IC50
1,"N.N.[Cl][Pt][Cl] [Cisplatin, reference compound]",7000 nM
2,mer-[RhCl3(DMSO)(bpy)] [Rh1a],1900 nM
3,mer-[RhCl3(DMSO)(dppn)] [Rh5a],70 nM
4,mer-[RhCl3(DMSO)(dppz)]·1.5H2O [Rh4a],73 nM
5,mer-[RhCl3(DMSO)(dpq)] [Rh3a],69 nM
6,mer-[RhCl3(DMSO)(phen)]·H2O [Rh2a],190 nM

# Same assay, conditions: Table 2; determined as described in Example 2
row,Compound,IC50
1,"N.N.[Cl][Pt][Cl] [Cisplatin, reference compound]",7000 nM
2,"CO.C[S+](C)(=O)[Ir-3]1([Cl])([Cl])([Cl])[n+]2cccc3ccc4ccc[n+]1c4c32.O [Ir2a, fac-[IrCl3(DMSO)(phen)]·CH3OH·H2O]",4600 nM
3,"[(η^5-C5Me5)IrCl(dppz)](CF3SO3) [compound 6, reference compound]",7400 nM
4,"[(η^5-C5Me5)Ir{(Me2N)2CS}(dppn)](CF3SO3) [compound 7, reference compound]",410 nM
5,fac-[IrC/3(DMSO)(dppz)]·2H2O [Ir4a],1500 nM
6,fac-[IrC/3(DMSO)(dpq)·3H2O [Ir3a],6100 nM
7,fac-[IrCl3(DMSO)(bpy)·2H2O [Ir1a],> 100000 nM
8,fac-[IrCl3(DMSO)(dppn)]·2CH3OH [Ir5a],1300 nM

# Tested on: MCF-7 cells
# Assay: Cellular uptake of iridium (GF-AAS), MCF-7 cells
# Assay type: cell-based, human
# Conditions: 10 µM complex, 6 h; 0.0: value below the detection limit
# Protocol: (§3) For cellular uptake studies, HT-29 and MCF-7 cells were grown until at least 70 % confluency in 175 cm^2 cell culture flasks. Stock solutions of complexes Ir1a - Ir5a in DMSO were freshly prepared and diluted with cell culture medium to the desired concentrations (final DMSO concentrations: 0.1 % v/v, final complex concentration: 10 or 100 µM). The cell culture medium of the cell culture flasks was replaced with 10 mL of the cell culture medium solutions containing Ir1a - Ir5a (10 µM or 100 µM) and the flasks were incubated for 6 h at 37°C/5 % CO2. The cell pellets were isolated, resuspended in 1 - 5 mL […], lysed by using a sonotrode and approximately diluted using twice distilled water. The iridium content of the samples was determined by graphite furnace atomic absorption spectroscopy (GF-AAS) and the protein content of separate aliquots by the Bradford method. To correct for matrix effects in GF-AAS measurements, samples and standards were adjusted to the same protein concentration by dilution with twice distilled water. Prior to GF-AAS analysis 20 µL triton X-100 (1 %) and 20 µL hydrochloric acid were added to each 200 µL sample of the cell suspensions. Cellular uptake was expressed as ng iridium per mg cell protein for data obtained from 3 independent experiments. Conversion of the ng iridium/mg protein value to the micromolar cellular concentration was performed as described previously.
# (§4) A Vario 6 graphite furnace atomic absorption spectrometer (Analytik Jena) was employed for the lr quantification using a wavelength of 208.9 nm with a bandpass of 0.5 nm. A deuterium lamp was used for background correction. Matrix containing standards were obtained by addition of an iridium stock solution (1 mg/mL lr in 5 % HCl). 18 % hydrochloric acid solution was employed as a modifier. Probes were injected at a volume of 25 µL into graphite tubes. The detection limit for the method was 3.8 µg Ir L^-1. The mean AUC (area under curve) absorptions of duplicate injections were used throughout the study.
row,Compound,MCF-7 uptake 10 µM
1,"CO.C[S+](C)(=O)[Ir-3]1([Cl])([Cl])([Cl])[n+]2cccc3ccc4ccc[n+]1c4c32.O [Ir2a, fac-[IrCl3(DMSO)(phen)]·CH3OH·H2O]",0.0 ng Ir/mg protein
2,fac-[IrC/3(DMSO)(dppz)]·2H2O [Ir4a],3.3(3.3) ng Ir/mg protein
3,fac-[IrC/3(DMSO)(dpq)·3H2O [Ir3a],0.3(0.3) ng Ir/mg protein
4,fac-[IrCl3(DMSO)(dppn)]·2CH3OH [Ir5a],19.3(0.8) ng Ir/mg protein

# Same assay, conditions: 100 µM complex, 6 h
row,Compound,MCF-7 uptake 100 µM
1,"CO.C[S+](C)(=O)[Ir-3]1([Cl])([Cl])([Cl])[n+]2cccc3ccc4ccc[n+]1c4c32.O [Ir2a, fac-[IrCl3(DMSO)(phen)]·CH3OH·H2O]",74.4(13.5) ng Ir/mg protein
2,fac-[IrC/3(DMSO)(dppz)]·2H2O [Ir4a],644.0(149.1) ng Ir/mg protein
3,fac-[IrC/3(DMSO)(dpq)·3H2O [Ir3a],640.5(148.9) ng Ir/mg protein
4,fac-[IrCl3(DMSO)(dppn)]·2CH3OH [Ir5a],180.8(2.7) ng Ir/mg protein

# Tested on: HT-29
# Assay: Cellular uptake of iridium (GF-AAS), HT-29 cells
# Assay type: cell-based, human
# Conditions: 10 µM complex, 6 h; 0.0: value below the detection limit
# Protocol: as §3, §4
row,Compound,HT-29 uptake 10 µM
1,"CO.C[S+](C)(=O)[Ir-3]1([Cl])([Cl])([Cl])[n+]2cccc3ccc4ccc[n+]1c4c32.O [Ir2a, fac-[IrCl3(DMSO)(phen)]·CH3OH·H2O]",0.0 ng Ir/mg protein
2,"[(η^5-C5Me5)IrCl(dppz)](CF3SO3) [compound 6, reference compound]",70.4(1.0) ng Ir/mg protein
3,"[(η^5-C5Me5)Ir{(Me2N)2CS}(dppn)](CF3SO3) [compound 7, reference compound]",149.6(7.8) ng Ir/mg protein
4,fac-[IrC/3(DMSO)(dppz)]·2H2O [Ir4a],11.9(3.0) ng Ir/mg protein
5,fac-[IrC/3(DMSO)(dpq)·3H2O [Ir3a],0.0 ng Ir/mg protein
6,fac-[IrCl3(DMSO)(bpy)·2H2O [Ir1a],0.0 ng Ir/mg protein
7,fac-[IrCl3(DMSO)(dppn)]·2CH3OH [Ir5a],37.4(8.9) ng Ir/mg protein

# Same assay, conditions: 100 µM complex, 6 h; 0.0: value below the detection limit
row,Compound,HT-29 uptake 100 µM
1,"CO.C[S+](C)(=O)[Ir-3]1([Cl])([Cl])([Cl])[n+]2cccc3ccc4ccc[n+]1c4c32.O [Ir2a, fac-[IrCl3(DMSO)(phen)]·CH3OH·H2O]",21.2(5.2) ng Ir/mg protein
2,fac-[IrC/3(DMSO)(dppz)]·2H2O [Ir4a],1664.4(473.1) ng Ir/mg protein
3,fac-[IrC/3(DMSO)(dpq)·3H2O [Ir3a],167.8(3.4) ng Ir/mg protein
4,fac-[IrCl3(DMSO)(bpy)·2H2O [Ir1a],0.0 ng Ir/mg protein
5,fac-[IrCl3(DMSO)(dppn)]·2CH3OH [Ir5a],226.1(26.6) ng Ir/mg protein

# Tested on: not listed separately
# Assay: Stability and isomerization in solution (1H NMR)
# Assay type: physicochemical
# Conditions: in DMSO
row,Compound,isomerization
1,mer-[RhCl3(DMSO)(bpy)] [Rh1a],isomerize rapidly to a mixture of fac- and mer-isomers
2,mer-[RhCl3(DMSO)(phen)]·H2O [Rh2a],isomerize rapidly to a mixture of fac- and mer-isomers

# Tested on: MCF-7 breast cancer
# Assay: not given
# Conditions: references [5, 6]; cited from earlier work
row,Compound,IC50
1,"[(η^5-C5Me5)IrCl(dppz)](CF3SO3) [compound 6, reference compound]",2300 nM

# Tested on: HT-29 human colon carcinoma cells
# Assay: not given
# Conditions: references [5, 6]; cited from earlier work
row,Compound,IC50
1,"[(η^5-C5Me5)IrCl(dppz)](CF3SO3) [compound 6, reference compound]",7400 nM

# Tested on: A 2780 (ovarian carcinoma)
# Assay: not given
# Conditions: Mestroni et al. [1]; cited from earlier work
row,Compound,IC50
1,"mer,cis-[RhCl3(DMSO-κS)(Im)2]",> 200000 nM

# Tested on: LoVo (colon carcinoma)
# Assay: not given
# Conditions: Mestroni et al. [1]; cited from earlier work
row,Compound,IC50
1,"mer,cis-[RhCl3(DMSO-κS)(Im)2]",40000 ± 15000 nM

# Tested on: Calu (lung carcinoma)
# Assay: not given
# Conditions: Mestroni et al. [1]; cited from earlier work
row,Compound,IC50
1,"mer,cis-[RhCl3(DMSO-κS)(Im)2]",> 200000 nM

# Tested on: mouse P 388 leukemia
# Assay: not given
# Conditions: reference [2]; cited from earlier work
row,Compound,Activity against mouse P 388 leukemia
1,"mer,cis-[RhCl3(DMSO-κS)(py)2]",Activity

# Tested on: not given
# Assay: not given
# Conditions: references [3], [4]; cited from earlier work
row,Compound,cytotoxicity
1,C1CSCCSCCN1.[Cl][Rh]([Cl])[Cl] [fac-[RhCl3(9-[ane]-NS2)]],exhibit cytotoxicity
2,[Cl][Rh]([Cl])[Cl].c1ccc(-c2cccc(-c3ccccn3)n2)nc1 [mer-[RhCl3(tpy)]],exhibit cytotoxicity
3,[Rh(Im)(tpy)2]Cl·3H2O,exhibit cytotoxicity

# Tested on: tumour cell lines
# Assay: not given
# Conditions: references [7, 8]; cited from earlier work
row,Compound,biological activity
1,[Cl][Ir-]([Cl])([Cl])[Cl].c1c[nH+]c[nH]1.c1c[nH]cn1.c1c[nH]cn1 [[ImH][trans-IrCl4(Im)2]],biologically inactive
2,[(DMSO)2H] [[(DMSO)2H] [trans-IrCl4(DMSO)2]],biologically inactive
3,[ImH][trans-IrCl4(DMSO)(Im)],biologically inactive
